Test results published in patent US20170121315A1, “HETEROBICYCLICALLY SUBSTITUTED 4-OXOBUTANE ACID DERIVATIVES AND USE THEREOF” (priority 2014, published 2017).

Assays:
Type in all cases: biochemical
MMP-13 = biological target: T1, MMP-13 (Homo sapiens, UniProt P45452); test: In vitro MMP-13 inhibition test; settings: human MMP-13
T1 construct: purchased R&D Systems 511-MP
Excerpt: (§1) The MMP-mediated amidolytic cleavage of a suitable peptide substrate leads to an increase in fluorescent light here too. The signal intensity of the fluorescent light is directly proportional to the enzyme activity. The active concentration of a test compound at which half the enzyme is inhibited (50% signal intensity of the fluorescent light) is reported as the IC50 value.
(§2) Recombinant MMP-13 (R&D Systems, 511-MP) is chemically activated in accordance with the manufacturer's instructions using APMA. 1 μl of the test compound to be analysed (as a solution in DMSO, suitable concentrations e.g. 1 nM to 30 μM) is pipetted into 24 μl of activated enzyme (final concentration e.g. 0.1 nM) in reaction buffer (50 mM Tris/HCl pH 7.5, 10 mM CaCl2, 150 mM NaCl, 0.05% Brij®-35) in a white 384-hole microtiter plate (MTP). The enzymatic reaction is started by adding the intramolecularly quenched Mca-Pro-Leu-Gly-Leu-Dpa(Dnp)-Ala-Arg-NH2 substrate (final concentration e.g. 10 μM; R&D Systems, ES-001), so as to result in a total test volume of 50 μl. The course of the MMP-13 reaction is measured by measuring the fluorescence intensity (excitation 320 nm, emission 410 nm) over a suitable period of time (e.g. over 120 min at a temperature of 32° C.).

MMP-16 = biological target: T2, MMP-16 (Homo sapiens, UniProt P51512); test: In vitro MMP-16 inhibition test; settings: human MMP-16
T2 construct: purchased R&D Systems 1785-MP
Excerpt: as §1
Recombinant MMP-16 (R&D Systems, 1785-MP) is enzymatically activated in accordance with the manufacturer's instructions using recombinant furin (R&D Systems, 1503-SE). 1 μl of the test compound to be analysed (as a solution in DMSO, suitable concentrations e.g. 1 nM to 30 μM) is pipetted into 24 μl of activated enzyme (final concentration e.g. 1 nM) in reaction buffer (50 mM Tris/HCl pH 7.5, 10 mM CaCl2, 150 mM NaCl, 0.05% Brij®-35) in a white 384-hole microtiter plate (MTP). The enzymatic reaction is started by adding the intramolecularly quenched Mca-Lys-Pro-Leu-Gly-Leu-Dpa(Dnp)-Ala-Arg-NH2 substrate (final concentration e.g. 5 μM; R&D Systems, ES-010), so as to result in a total test volume of 50 μl. The course of the MMP-16 reaction is measured by measuring the fluorescence intensity (excitation 320 nm, emission 410 nm) over a suitable period of time (e.g. over 120 min at a temperature of 32° C.).

MMP-1 = biological target: T3, MMP-1 (Homo sapiens, UniProt P03956); test: In vitro MMP-1 inhibition test; settings: human MMP-1
T3 construct: purchased R&D Systems 901-MP
T3 sequence (P03956 100-469): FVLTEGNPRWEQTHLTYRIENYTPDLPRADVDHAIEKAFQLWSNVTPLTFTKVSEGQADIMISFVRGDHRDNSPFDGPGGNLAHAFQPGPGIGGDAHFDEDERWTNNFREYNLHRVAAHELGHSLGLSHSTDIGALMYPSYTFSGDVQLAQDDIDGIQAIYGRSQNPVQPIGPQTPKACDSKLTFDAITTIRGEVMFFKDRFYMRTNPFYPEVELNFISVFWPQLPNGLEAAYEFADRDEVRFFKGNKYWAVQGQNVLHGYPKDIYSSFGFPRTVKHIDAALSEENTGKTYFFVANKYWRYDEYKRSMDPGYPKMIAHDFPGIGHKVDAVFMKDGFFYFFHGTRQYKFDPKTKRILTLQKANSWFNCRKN
Excerpt: as §1
as §2, with “MMP-1” for “MMP-13”, “901-MP)” for “511-MP)”, “2” for “0.1”

MMP-3 = biological target: T4, MMP-3 (Homo sapiens, UniProt P08254); test: In vitro MMP-3 inhibition test; settings: human MMP-3
T4 construct: purchased R&D Systems 513-MP
Excerpt: as §1
as §2, with “MMP-3” for “MMP-13”, “513-MP)” for “511-MP)”, “2” for “0.1”, “Mca-Arg-Pro-Lys-Pro-Val-Glu-Nval-Trp-Arg-Lys(Dnp)-NH2” for “Mca-Pro-Leu-Gly-Leu-Dpa(Dnp)-Ala-Arg-NH2”, “ES-002),” for “ES-001),”

T2 sequence (P51512 120-564 limits assumed): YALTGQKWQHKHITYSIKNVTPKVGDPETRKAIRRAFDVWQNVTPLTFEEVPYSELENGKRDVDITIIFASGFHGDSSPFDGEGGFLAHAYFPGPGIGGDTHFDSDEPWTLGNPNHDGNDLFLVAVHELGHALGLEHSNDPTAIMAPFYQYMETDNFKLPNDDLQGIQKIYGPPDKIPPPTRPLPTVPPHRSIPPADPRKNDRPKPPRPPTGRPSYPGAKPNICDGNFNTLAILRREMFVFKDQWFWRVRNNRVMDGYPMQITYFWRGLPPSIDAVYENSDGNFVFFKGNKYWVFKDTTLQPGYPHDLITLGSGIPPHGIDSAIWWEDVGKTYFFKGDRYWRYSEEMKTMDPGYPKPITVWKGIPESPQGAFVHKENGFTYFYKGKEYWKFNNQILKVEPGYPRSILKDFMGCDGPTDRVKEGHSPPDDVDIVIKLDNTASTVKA
T4 sequence (P08254 100-477): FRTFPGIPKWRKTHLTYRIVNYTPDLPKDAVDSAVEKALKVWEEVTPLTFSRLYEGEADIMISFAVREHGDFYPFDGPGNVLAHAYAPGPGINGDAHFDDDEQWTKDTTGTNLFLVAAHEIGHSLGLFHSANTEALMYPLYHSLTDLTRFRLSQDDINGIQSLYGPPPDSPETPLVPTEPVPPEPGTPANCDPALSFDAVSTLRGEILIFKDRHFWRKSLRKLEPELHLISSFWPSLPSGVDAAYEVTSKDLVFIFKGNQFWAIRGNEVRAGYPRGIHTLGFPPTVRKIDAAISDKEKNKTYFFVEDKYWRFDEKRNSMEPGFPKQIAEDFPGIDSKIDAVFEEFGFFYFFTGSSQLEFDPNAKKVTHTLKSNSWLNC

SMILES	IC50 (MMP-13) [nM]	IC50 (MMP-16) [µM]	IC50 (MMP-1) [µM]	IC50 (MMP-3) [µM]
CCCCCOc1ccc2c(C(=O)CC(CCn3nnc4ccccc4c3=O)C(=O)O)noc2c1 (racemic) [Example 140, (+/−)-4-Oxo-2-[2-(4-oxo-1,2,3-benzotriazin-3(4H)-yl)ethyl]-4-[6-(pentyloxy)-1,2-benzoxazol-3-yl]butanoic acid]	330	24	> 40	14
O=C(CC(CCn1nnc2ccccc2c1=O)C(=O)O)c1cc2cc(OCCc3ccccc3)ccc2o1 (single isomer, unassigned; (+)) [Example 21, (+)-4-Oxo-2-[2-(4-oxo-1,2,3-benzotriazin-3(4H)-yl)ethyl]-4-[5-(2-phenylethoxy)-1-benzofur-2-yl]butanoic acid]	1800	> 40	> 40	22
CCCCCCCOc1ccc2c(C(=O)CC(CCn3nnc4ccccc4c3=O)C(=O)O)coc2c1 (racemic) [Example 101, (+/−)-4-[6-(Heptyloxy)-1-benzofur-3-yl]-4-oxo-2-[2-(4-oxo-1,2,3-benzotriazin-3(4H)-yl)ethyl]butanoic acid]	1100	> 40	> 40	> 40
O=C(O)[C@@H]1[C@@H](Cn2nnc3ccc(C(F)(F)F)cc3c2=O)CC[C@H]1C(=O)c1cc2cc(OCCc3ccccc3)ccc2o1 (single isomer, unassigned; enantiomer 2) [Example 159, (+)-(1RS,2SR,5RS)-2-{[4-Oxo-6-(trifluoromethyl)-1,2,3-benzotriazin-3(4H)-yl]methyl}-5-{[5-(2-phenylethoxy)-1-benzofur-2-yl]carbonyl}cyclopentanecarboxylic acid (enantiomer 2)]	660	3	> 40	2.2
O=C(CC(CCn1nnc2ccccc2c1=O)C(=O)O)c1cc2cc(OCc3ccccc3)ccc2o1 (single isomer, unassigned; (+)) [Example 30, (+)-4-[5-(Benzyloxy)-1-benzofur-2-yl]-4-oxo-2-[2-(4-oxo-1,2,3-benzotriazin-3(4H)-yl)ethyl]butanoic acid]	10000	> 40	> 40	> 40
CCCOc1ccc2cc(C(=O)CC(CCn3nnc4ccccc4c3=O)C(=O)O)oc2c1 (racemic) [Example 58, (+/−)-4-Oxo-2-[2-(4-oxo-1,2,3-benzotriazin-3(4H)-yl)ethyl]-4-(6-propoxy-1-benzofur-2-yl)butanoic acid]	> 40000	> 40	> 40	> 40
O=C(CC(CCn1nnc2ccccc2c1=O)C(=O)O)c1cc2ccc(OCCc3ccccc3)cc2s1 (racemic) [Example 114, (+/−)-4-Oxo-2-[2-(4-oxo-1,2,3-benzotriazin-3(4H)-yl)ethyl]-4-[6-(2-phenylethoxy)-1-benzothiophen-2-yl]butanoic acid]	250	28	> 40	3.2
O=C(CC(CCn1nnc2ccccc2c1=O)C(=O)O)c1noc2cc(OCc3ccc(F)cc3)ccc12 (racemic) [Example 136, (+/−)-4-{6-[(4-Fluorobenzyl)oxy]-1,2-benzoxazol-3-yl}-4-oxo-2-[2-(4-oxo-1,2,3-benzotriazin-3(4H)-yl)ethyl]butanoic acid]	970	30	> 40	15
O=C(CC(CCn1nnc2ccccc2c1=O)C(=O)O)c1cc2cc(OCC3CCCCC3)ccc2o1 (racemic) [Example 8, (+/−)-4-[5-(Cyclohexylmethoxy)-1-benzofur-2-yl]-4-oxo-2-[2-(4-oxo-1,2,3-benzotriazin-3(4H)-yl)ethyl]butanoic acid]	22000	> 40	> 40	> 40
Cc1cccc(COc2ccc3oc(C(=O)CC(CCn4nnc5ccccc5c4=O)C(=O)O)cc3c2)c1 (racemic) [Example 51, (+/−)-4-{5-[(3-Methylbenzyl)oxy]-1-benzofur-2-yl}-4-oxo-2-[2-(4-oxo-1,2,3-benzotriazin-3(4H)-yl)ethyl]butanoic acid]	11000	> 40	> 40	> 40
O=C(CC(CCn1nnc2ccccc2c1=O)C(=O)O)c1cc2cc(OCc3cccc(Cl)c3)ccc2o1 (racemic) [Example 50, (+/−)-4-{5-[(3-Chlorobenzyl)oxy]-1-benzofur-2-yl}-4-oxo-2-[2-(4-oxo-1,2,3-benzotriazin-3(4H)-yl)ethyl]butanoic acid]	4000	> 40	> 40	34
O=C(CC(CCn1nnc2ccccc2c1=O)C(=O)O)c1cc2ccc(OCC3CC3)cc2s1 (racemic) [Example 111, (+/−)-4-[6-(Cyclopropylmethoxy)-1-benzothiophen-2-yl]-4-oxo-2-[2-(4-oxo-1,2,3-benzotriazin-3(4H)-yl)ethyl]butanoic acid]	1900	> 40	> 40	9.7
O=C(CC(CCn1nnc2ccccc2c1=O)C(=O)O)c1noc2cc(OCc3ccccc3)ccc12 (racemic) [Example 145, (+/−)-4-[6-(Benzyloxy)-1,2-benzoxazol-3-yl]-4-oxo-2-[2-(4-oxo-1,2,3-benzotriazin-3(4H)-yl)ethyl]butanoic acid]	1500	25	> 40	8.9
O=C(CC(CCn1nnc2ccccc2c1=O)C(=O)O)c1coc2cc(OCCC3CCCC3)ccc12 (racemic) [Example 75, (+/−)-4-[6-(2-Cyclopentylethoxy)-1-benzofur-3-yl]-4-oxo-2-[2-(4-oxo-1,2,3-benzotriazin-3(4H)-yl)ethyl]butanoic acid]	3800	> 40	> 40	> 40
O=C(CC(CCn1nnc2ccccc2c1=O)C(=O)O)c1cc2cc(OCc3ccc(C(F)(F)F)cc3)ccc2o1 (racemic) [Example 44, (+/−)-4-Oxo-2-[2-(4-oxo-1,2,3-benzotriazin-3(4H)-yl)ethyl]-4-(5-{[4-(trifluoromethyl)benzyl]oxy}-1-benzofur-2-yl)butanoic acid]	2100	> 40	> 40	23
